Experimental findings from ChEMBL document CHEMBL5360655, “Design, Synthesis, and Biological Evaluation of Novel P2X7 Receptor Antagonists for the Treatment of Septic Acute Kidney Injury” (J Med Chem, 2023) are described below.

In data set [1] the target is T1, P2X purinoceptor 7 (Homo sapiens) (UniProt Q99572).
T1 sequence (whole entry): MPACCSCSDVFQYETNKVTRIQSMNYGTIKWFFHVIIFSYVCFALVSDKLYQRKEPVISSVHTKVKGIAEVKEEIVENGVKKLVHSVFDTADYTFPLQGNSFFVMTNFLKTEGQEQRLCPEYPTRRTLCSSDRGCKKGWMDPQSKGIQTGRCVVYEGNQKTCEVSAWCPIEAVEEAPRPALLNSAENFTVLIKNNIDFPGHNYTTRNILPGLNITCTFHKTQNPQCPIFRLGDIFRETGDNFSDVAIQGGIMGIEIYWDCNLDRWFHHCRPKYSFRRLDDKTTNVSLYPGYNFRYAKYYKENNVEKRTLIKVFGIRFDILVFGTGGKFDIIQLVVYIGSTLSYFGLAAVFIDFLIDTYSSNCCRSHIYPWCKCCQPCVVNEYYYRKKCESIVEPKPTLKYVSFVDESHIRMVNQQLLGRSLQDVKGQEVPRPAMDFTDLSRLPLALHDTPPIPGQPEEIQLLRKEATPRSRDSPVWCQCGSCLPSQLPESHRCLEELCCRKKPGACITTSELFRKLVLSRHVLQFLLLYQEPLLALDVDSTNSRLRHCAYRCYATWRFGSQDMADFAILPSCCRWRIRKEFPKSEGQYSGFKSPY
Put plainly: Antagonist activity at human P2X7 receptor expressed in HEK293 cells assessed as inhibition of ATP-induced receptor pore formation at 1 uM by propidium iodide dye uptake based fluorescence analysis. Type of data set: cell-based. To be noted: filed as antagonist.

For another data set, the system named is HEK293. Put plainly: Cytotoxicity against human HEK293 cells transfected with human P2X7 receptor assessed as effect on cell viability at 1 to 4 uM incubated for 2 hrs by CCK8 assay. Format: toxicity, cell-based. To be noted: hek293, 2 h, dose 1-4 µM. (In general: Formazan colour is commonly taken as a measure of viable cells.)
A short description of data set [2]: AUC(0 to t) in BALB/c mouse at 10 mg/kg, po measured for 24 hrs by LC-MS/MS analysis. Type of data set: ADME, organism-based. More on the design: time 24 hrs, dose 10 mg/kg, route po. To be noted: in vivo.
A short description of data set [3]: Tmax in BALB/c mouse at 10 mg/kg, po measured for 24 hrs by LC-MS/MS analysis. Format: ADME, organism-based. As to conditions: in vivo.
A short description of data set [4]: AUC(0 to t) in BALB/c mouse at 10 mg/kg, ip measured for 24 hrs by LC-MS/MS analysis. Format: ADME, organism-based. The arrangement: dose 10 mg/kg, time 24 hrs, route ip. As to conditions: in vivo.
The nature of data set [5]: Clearance in BALB/c mouse at 10 mg/kg, ip measured for 24 hrs by LC-MS/MS analysis. Type of data set: ADME, organism-based. As to conditions: in vivo.
Data set [6] has as its system Mus musculus. Put plainly: Reno-protective activity against LPS-induced acute kidney injury C57BL/6J mouse model assessed as decrease in serum […] level at 10 mg/kg, ip administered twice at 30 mins prior to LPS challenge and 8 hrs post-LPS challenge and measured at 16 hrs post-LPS challenge. Format: functional, organism-based. To be noted: time 16.5 hrs.
The subject of data set [7] is Mus musculus. Put plainly: Reno-protective activity against LPS-induced acute kidney injury C57BL/6J mouse model assessed as decrease in BUN level at 10 mg/kg, ip administered twice at 30 mins prior to LPS challenge and 8 hrs post-LPS challenge and measured at 16 hrs post-LPS challenge. Type of data set: functional, organism-based. As to conditions: time 16.5 hrs.
The target in a further data set is Cytochrome P450 3A4 (Homo sapiens, UniProt P08684). Put plainly: Inhibition of CYP3A4 in human liver microsomes using midazolam as substrate upto 100 uM incubated for 10 mins in presence of NADPH by LC-MS/MS analysis. Format: ADME, Microsome. A general note: Liver microsomes are vesicles of endoplasmic reticulum, rich in cytochrome P450 enzymes.
The next data set addresses Cytochrome P450 2D6 (Homo sapiens, UniProt P10635). In words: Inhibition of CYP2D6 in human liver microsomes using dextromethorphan as substrate upto 100 uM incubated for 10 mins in presence of NADPH by LC-MS/MS analysis. Format: ADME, Microsome.
Data set [8] addresses T1, P2X purinoceptor 7 (Homo sapiens). In words: Antagonist activity at P2X7 receptor in human THP-1 cells assessed as inhibition of Bz-ATP-evoked channel current at 2 uM by whole-cell patch clamp analysis. Type of data set: cell-based. As to conditions: filed as antagonist. On the technique in general: Patch clamp records ionic current or voltage across a cell membrane.
Data set [9] can be described thus: Toxicity in C57BL/6J mouse assessed as pathological changes in heart at 20 mg/kg, ip administered twice at 0 hrs and 8 hrs and measured after 16 hrs by Hematoxylin-Eosin staining based analysis. Format: organism-based. As to conditions: in vivo.
Data set [10] is described as follows: Toxicity in C57BL/6J mouse assessed as pathological changes in kidney at 20 mg/kg, ip administered twice at 0 hrs and 8 hrs and measured after 16 hrs by Hematoxylin-Eosin staining based analysis. Type of data set: organism-based. As to conditions: in vivo.
Data set [11] in a line: Toxicity in C57BL/6J mouse assessed as mortality at 600 mg/kg, ip measured for 14 days. Type of data set: organism-based. To be noted: in vivo, 336 h, time 14 day.
In data set [12] the test system is Mus musculus. Put plainly: Reno-protective activity against LPS-induced acute kidney injury C57BL/6J mouse model assessed as decrease in serum […] level at 5 to 20 mg/kg, ip administered twice at 30 mins prior to LPS challenge and 8 hrs post-LPS challenge and measured at 16 hrs post-LPS challenge. Format: functional, organism-based. To be noted: dose 5-20 mg/kg, time 16.5 hrs.

For data set [13], the system named is Mus musculus. Put plainly: Reno-protective activity against CLP-induced acute kidney injury C57BL/6J mouse model assessed as decrease in serum […] level at 20 mg/kg, ip administered twice at 30 mins prior to CLP operation and 8 hrs post-CLP operation and measured at 16 hrs post-CLP operation. Type of data set: functional, organism-based. To be noted: time 16.5 hrs.

For data set [14], the system named is Mus musculus. Put plainly: Reno-protective activity against CLP-induced acute kidney injury C57BL/6J mouse model assessed as decrease in KIM1 mRNA expression in kidney at 20 mg/kg, ip administered twice at 30 mins prior to CLP operation and 8 hrs post-CLP operation and measured at 16 hrs post-CLP operation by RT-qPCR analysis. To be noted: time 16.5 hrs. Type of data set: functional, organism-based.

The test system of data set [15] is Mus musculus. Put plainly: Reno-protective activity against CLP-induced acute kidney injury C57BL/6J mouse model assessed as decrease in Nlrp3 gene expression in kidney at 20 mg/kg, ip administered twice at 30 mins prior to CLP operation and 8 hrs post-CLP operation and measured at 16 hrs post-CLP operation by RNA sequencing analysis. As to conditions: time 16.5 hrs. Format: functional, organism-based.

For data set [16], the system named is Mus musculus. In words: Reno-protective activity against CLP-induced acute kidney injury C57BL/6J mouse model assessed as decrease in NLRP3 protein expression in kidney at 20 mg/kg, ip administered twice at 30 mins prior to CLP operation and 8 hrs post-CLP operation and measured at 16 hrs post-CLP operation by western blot analysis. Type of data set: functional, organism-based. As to conditions: time 16.5 hrs.

The test system of data set [17] is Mus musculus. Put plainly: Reno-protective activity against CLP-induced acute kidney injury C57BL/6J mouse model assessed as decrease in cleaved caspase 1 (p20) protein expression in kidney at 20 mg/kg, ip administered twice at 30 mins prior to CLP operation and 8 hrs post-CLP operation and measured at 16 hrs post-CLP operation by western blot analysis. To be noted: time 16.5 hrs. Type of data set: functional, organism-based.

Data set [18] has as its system Mus musculus. In words: Reno-protective activity against CLP-induced acute kidney injury C57BL/6J mouse model assessed as decrease in GSDMD-N protein expression in kidney at 20 mg/kg, ip administered twice at 30 mins prior to CLP operation and 8 hrs post-CLP operation and measured at 16 hrs post-CLP operation by western blot analysis. Type of data set: functional, organism-based. To be noted: time 16.5 hrs.

Calls of active or inactive are those of the source. The calls are words filed in the database; no cut-off is given here.

Sequence of Cytochrome P450 2D6 (P10635 whole entry): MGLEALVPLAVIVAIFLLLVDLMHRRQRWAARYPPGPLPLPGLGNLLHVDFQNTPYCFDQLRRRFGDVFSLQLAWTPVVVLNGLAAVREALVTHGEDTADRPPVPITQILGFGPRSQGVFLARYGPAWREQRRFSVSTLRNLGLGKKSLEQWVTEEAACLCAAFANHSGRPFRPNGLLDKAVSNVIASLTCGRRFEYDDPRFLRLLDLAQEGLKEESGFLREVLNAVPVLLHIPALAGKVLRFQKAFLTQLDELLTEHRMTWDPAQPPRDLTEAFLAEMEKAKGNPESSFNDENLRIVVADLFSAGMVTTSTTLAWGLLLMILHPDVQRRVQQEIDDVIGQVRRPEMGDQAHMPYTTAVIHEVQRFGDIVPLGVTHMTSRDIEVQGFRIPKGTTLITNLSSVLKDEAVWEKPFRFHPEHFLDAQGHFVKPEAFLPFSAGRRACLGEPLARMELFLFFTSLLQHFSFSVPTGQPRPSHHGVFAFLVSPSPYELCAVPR
Sequence of Cytochrome P450 3A4 (P08684 whole entry): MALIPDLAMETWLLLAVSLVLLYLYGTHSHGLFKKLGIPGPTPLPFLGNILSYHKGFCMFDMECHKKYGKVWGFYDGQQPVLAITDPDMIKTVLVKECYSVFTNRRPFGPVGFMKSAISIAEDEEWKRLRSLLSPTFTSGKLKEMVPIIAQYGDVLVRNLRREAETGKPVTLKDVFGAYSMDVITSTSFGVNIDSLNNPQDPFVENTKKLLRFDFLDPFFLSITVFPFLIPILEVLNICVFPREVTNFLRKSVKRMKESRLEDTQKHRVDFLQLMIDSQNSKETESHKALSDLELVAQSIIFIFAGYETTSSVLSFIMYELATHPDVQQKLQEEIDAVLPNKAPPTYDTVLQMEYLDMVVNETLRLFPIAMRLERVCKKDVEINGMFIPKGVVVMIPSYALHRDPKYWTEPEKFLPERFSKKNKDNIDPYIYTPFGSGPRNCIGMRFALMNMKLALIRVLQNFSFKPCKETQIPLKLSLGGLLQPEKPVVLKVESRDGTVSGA

As usually defined, the inhibition is the relative decrease from the control value, in per cent. What is called AUC(0-t) is exposure summed from dosing to a finite time, without extrapolation to infinity. Low readings indicate low exposure, high ones high exposure. What is called Tmax is the time at which the peak concentration occurs. The CL/F is clearance divided by bioavailability, as obtained after extravascular dosing. For `CS(=O)(=O)c1ccc(-c2nc(C(=O)NCc3cn(-c4cc(Br)ccn4)nn3)cs2)cc1`, the values for the inhibition in data set [1] and in [8] were 112% and 56.1%, respectively. For the same compound, the Activity result in the data set on HEK293 was “Non-Toxic”; in data set [9], “Non-Toxic”; in [10], “Non-Toxic”; in data set [11] it was “Toxic”; with Mus musculus [12], “Dose-Dependent Effect”. Further, the exposure AUC(0-t) at 24 h amounted to 6510 ng·h/mL in data set [2] and 11900 ng·h/mL in [4]. The Tmax in data set [3] is 1.17 h. This compound also registered a CL/F in [5] of 12.7 mL/min/kg. The result in the data set on Mus musculus [6], in the data set with Mus musculus [7], in the data set with Mus musculus [13], in the data set with Mus musculus [14], in the data set on Mus musculus [15] and in the data set with Mus musculus [16] was Active. For the same compound, the result in the data set with Mus musculus [17] and in the data set on Mus musculus [18] was Active. For the same compound, the “inhibition (INH)” value on Cytochrome P450 3A4 and at Cytochrome P450 2D6 was “Not Active” throughout.
